Experimental data reported in article PMC9962329, “Photocaging of Pyridinylimidazole-Based Covalent JNK3 Inhibitors Affords Spatiotemporal Control of the Binding Affinity in Live Cells” (Pharmaceuticals, 2023).

Assays:
JNK3 [1] = target: T1, JNK3 (Homo sapiens, UniProt P53779); experiment: NanoBRET TE intracellular JNK3 assay; type: cell-based; conditions: for IC50 / decreased binding affinity compared to lead structure 1: NanoBRET TE intracellular JNK3 assay; for IC50: tracer K-10 0.25 µM, means of at least two independent experiments, read-out: JNK3 IC50 ± SEM; for decreased binding affinity compared to lead structure 1: relative to 1 (IC50 = 243 nM)
Protocol: The NanoBRET™ TE intracellular JNK3 assay was performed as previously described by Andreev et al., with minor modifications.
Cells were treated with trypsin and centrifuged (210× g, 5 min) one day prior to the experiment. Afterwards, cells were resuspended in Leibovitz’ L-15 medium, supplemented with 5% FCS and 10 mM HEPES, and the suspension was adjusted to a density of 300.000 cells per mL. Meanwhile the transfection reagent was prepared. For a 96-well plate, transfection carrier DNA (4 µg) (Promega, Fitchburg, WI, USA) and JNK3-NanoLuc® Fusion vector (0.45 µg) (Promega) were diluted in Leibovitz’ L-15 medium (450 µL) and, finally, X-tremeGENE HP (13.5 µL) (Roche Diagnostics, Mannheim, Germany) was added. The mixture was incubated for 20 min at room temperature. Subsequently, the lipid–DNA complex was added to 9 mL of the cell suspension. A total of 80 µL of this cell suspension were added to each well of a white 96-well plate (Brand, Wertheim, Germany), which was incubated for 24 h at 37 °C (no additional CO2).
The fluorescent tracer K-10 (Promega, Mannheim, Germany) was diluted in DMSO to a concentration of 25 µM (100-fold more concentrated than the final assay concentration). This was further diluted 10-fold using the tracer dilution buffer (Promega, Mannheim, Germany), yielding a dilution which was 10-fold more concentrated than the final assay concentration. Next, 10 µL of the final fluorescent tracer dilution were added to the cells (the final concentration of K-10 in the assay was 0.25 µM).

JNK3 [2] = target: T1, JNK3; experiment: radiometric JNK3 activity assay at Eurofins Discovery; type: biochemical; conditions: for IC50: radiometric JNK3 activity assay; for decreased biological activity compared to parent compound 1: radiometric assay, relative to 1 (IC50 = 6 nM)
JNK3(C154A)-NLuc = target: T2, JNK3(C154A)-NLuc (Homo sapiens, UniProt P53779, C154A); experiment: NanoBRET TE intracellular assay with JNK3(C154A)-NLuc mutant; type: cell-based; conditions: single point mutation C154A
T2 construct: mutant made in house by PCR
Protocol: To generate the cDNA of the JNK3(C154A)-NLuc mutant, JNK3-NanoLuc® Fusion vector (Promega) was used as a template, and two partially overlapping primers (5′-[…] and 5′-[…]) (synthesized by Eurofins, Ebersberg) annealed to the template. Phusion HF DNA Polymerase was obtained from New England BioLabs (Frankfurt, Germany). The polymerase chain reaction (PCR) was carried out as described in the Phusion HF polymerase protocol. The PCR product was treated with Dpn I endonuclease and transformed into competent E. coli Top 10 cells. Point mutation was confirmed by sequencing (Eurofins Discovery).

JNK3 [3] = target: T1, JNK3; experiment: compound washout (kinetic analysis) in the NanoBRET assay; type: cell-based; conditions: 2 h incubation at 10-fold IC50, four washes, tracer 1 µM
Protocol: To study the putative covalent binding of inhibitors 8 and 13, we next applied the compound washout method in the NanoBRET^TM assay. Briefly, we established a protocol where the compound dissociation of 8 and 13 was determined indirectly by their ability to inhibit binding of the ATP-competitive tracer. The covalent inhibitor 1 was used as a positive control, and the propionamide 10 was used as a negative control.
For kinetic analyses experiments, plates were coated with crosslinked gelatin to improve cell adhesion. The transfection of the cells was carried out as described above, but 90 µL of cell suspension were seeded. The next day, cells were first incubated with the test compound in a 10-fold concentration of the respective IC50 value. After 2 h, the unbound compound was removed by washing the cells four times with 100 µL of Leibovitz’ L-15. Furimazine was then added according to the manufacturer`s protocol. Afterwards, a near-saturating concentration of tracer (1 µM) was added, and the measurement was started immediately.

JNK3 [4] = target: T1, JNK3; parameters: method as in PMID 34081840; conditions: light pulses at 390 nm, trans-cis switch; cited from earlier work
JNK3 [5] = target: T1, JNK3; parameters: method as in PMID 34081840; conditions: cellular NanoBRET assay, light pulses at 400 nm; cited from earlier work

T1 sequence (P53779 whole entry): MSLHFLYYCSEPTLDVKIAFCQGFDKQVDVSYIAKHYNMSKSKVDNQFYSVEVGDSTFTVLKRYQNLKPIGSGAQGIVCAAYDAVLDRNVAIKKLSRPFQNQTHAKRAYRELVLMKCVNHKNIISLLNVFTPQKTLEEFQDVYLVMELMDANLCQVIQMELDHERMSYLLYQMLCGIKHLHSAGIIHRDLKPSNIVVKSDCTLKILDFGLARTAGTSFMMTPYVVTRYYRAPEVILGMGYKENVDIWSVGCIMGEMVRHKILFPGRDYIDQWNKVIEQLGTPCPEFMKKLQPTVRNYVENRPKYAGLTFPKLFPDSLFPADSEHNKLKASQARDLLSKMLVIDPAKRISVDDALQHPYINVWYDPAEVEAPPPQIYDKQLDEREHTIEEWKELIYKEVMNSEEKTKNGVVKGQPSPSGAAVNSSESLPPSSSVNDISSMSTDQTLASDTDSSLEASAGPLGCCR
T2 sequence (P53779 whole entry C154A): as the sequence (P53779 whole entry) above, with C154A counted along it

SMILES	IC50 (JNK3 [1]) [nM]	decrease in JNK3 binding by introduction of the photocleavable protecting group (JNK3 [1]; NanoBRET assay, without irradiation, relative to parent 13)	IC50 (JNK3 [2]) [nM]	decreased biological activity compared to parent compound 1 (JNK3 [2])	decreased binding affinity compared to lead structure 1 (JNK3 [1]) [fold]	change in binding affinity for JNK3(C154A)-NLuc versus wildtype JNK3-NLuc (JNK3(C154A)-NLuc)	compound dissociation after washout (displacement by tracer) (JNK3 [3])	increase in biochemical activity by light (factor) (JNK3 [4])	increase in inhibitory potency by light (factor) (JNK3 [5])
C=CC(=O)Nc1cccc(NC(=O)c2ccc(N(Cc3cc(OC)c(OC)cc3[N+](=O)[O-])c3cc(-c4c(-c5ccc(F)cc5)nc(SC)n4C)ccn3)cc2)c1 [compound 17, N-(3-Acrylamidophenyl)-4-((4,5-dimethoxy-2-nitrobenzyl)(4-(4-(4-fluorophenyl)-1-methyl-2-(methylthio)-1H-imidazol-5-yl)pyridin-2-yl)amino)benzamide hydrotrifluoroacetate]	9490 ± 538	nearly one order of magnitude	–	–	–	–	–	–	–
C=CC(=O)Nc1cccc(NC(=O)c2ccc(Nc3cc(-c4c(-c5ccc(F)cc5)nc(SC)n4C)ccn3)cc2)c1 [compound 13, N-(3-Acrylamidophenyl)-4-((4-(4-(4-fluorophenyl)-1-methyl-2-(methylthio)-1H-imidazol-5-yl)pyridin-2-yl)amino)benzamide hydrotrifluoroacetate]	1060 ± 252	–	13	two-fold decreased	5.5	dramatic decrease in the binding affinity	remained persistently bound	–	–
CCC(=O)Nc1cccc(C(=O)N(C)c2ccc(Nc3cc(-c4c(-c5ccc(F)cc5)nc(SC)n4C)ccn3)cc2)c1 [compound 10, N-(4-((4-(4-(4-Fluorophenyl)-1-methyl-2-(methylthio)-1H-imidazol-5-yl)pyridin-2-yl)amino)phenyl)-N-methyl-3-propionamidobenzamide]	5020 ± 97	–	24	–	–	–	quickly displaced by the tracer	–	–
C=CC(=O)Nc1cccc(C(=O)N(C)c2ccc(Nc3cc(-c4c(-c5ccc(F)cc5)nc(SC)n4C)ccn3)cc2)c1 [compound 8, 3-Acrylamido-N-(4-((4-(4-(4-fluorophenyl)-1-methyl-2-(methylthio)-1H-imidazol-5-yl)pyridin-2-yl)amino)phenyl)-N-methylbenzamide hydrotrifluoroacetate]	1360 ± 342	–	14	two-fold decreased	4	dramatic decrease in the binding affinity	remained persistently bound	–	–
C=CC(=O)Nc1ccc2c(c1)CCc1cc(Nc3cc(-c4c(-c5ccc(F)cc5)nc(SC)n4C)ccn3)ccc1/N=N\2 [compound 2]	–	–	–	–	–	–	–	30	factor of only two
CCC(=O)Nc1cccc(NC(=O)c2ccc(Nc3cc(-c4c(-c5ccc(F)cc5)nc(SC)n4C)ccn3)cc2)c1 [compound 14, 4-((4-(4-(4-Fluorophenyl)-1-methyl-2-(methylthio)-1H-imidazol-5-yl)pyridin-2-yl)amino)-N-(3-propionamidophenyl)benzamide]	> 10000	–	22	–	–	–	–	–	–
C=CC(=O)Nc1cccc(C(=O)Nc2ccc(Nc3cc(-c4c(-c5ccc(F)cc5)nc(SC)n4C)ccn3)cc2)c1 [compound 1, acrylamido-N-(4-((4-(4-(4-fluorophenyl)-1-methyl-2-(methylthio)-1H-imidazol-5-yl)pyridin-2-yl)amino)phenyl)benzamide, reference compound]	243 ± 75	–	6	–	–	–	remained persistently bound	–	–
